Data from ChEMBL document CHEMBL6109090, “Design, synthesis, and biological evaluation of novel and highly potent peptides targeting syntenin” (Eur J Med Chem, 2025).
pIC50, pKd: −log10 of the molar value. The source made the active and inactive calls. The calls are words filed in the database; no cut-off is given here. Non-standard residues stand in square brackets, D forms with d. Residues, ends and D or L forms follow the SMILES beside them. Phg = N[C@H](C(=O)O)c1ccccc1

Columns and labels:
[1] = Binding affinity to Syntenin PDZ1 domain (unknown origin) assessed as dissociation constant by MST analysis; parameters: species or system Homo sapiens
[2] = Stability in mouse serum at 5 uM measured after 4 hrs by HPLC analysis; format: ADME, cell-free; details: for Stability: serum, 4 h, 5 µM
[3] = Antiproliferative activity against human SK-RC-20 cells assessed as inhibition of cell growth measured at 24 hrs by MTT assay; format: functional, cell-based; details: SK-RC-20, 24 h
[4] = Antiproliferative activity against human SK-RC-20 cells assessed as inhibition of cell growth measured at 48 hrs by MTT assay; format: functional, cell-based; details: SK-RC-20, 48 h
[5] = Antiproliferative activity against human SK-RC-20 cells assessed as inhibition of cell growth measured at 72 hrs by MTT assay; format: functional, cell-based; details: SK-RC-20, 72 h
SK-RC-20 [6] = assay: Binding affinity to immobilized Syntenin in human SK-RC-20 cells at 5 uM incubated for 2 hrs by pull down assay; format: cell-based
A498 = assay: Antiproliferative activity against human A498 cells assessed as inhibition of cell growth measured after 24 to 72 hrs by MTT assay; format: functional, cell-based; details: time 24-72 hrs
UO-31 = assay: Antiproliferative activity against human UO-31 cells assessed as inhibition of cell growth measured after 24 to 72 hrs by MTT assay; format: functional, cell-based; details: time 24-72 hrs
KMRC-1 = assay: Antiproliferative activity against human KMRC-1 cells assessed as inhibition of cell growth measured after 24 to 72 hrs by MTT assay; format: functional, cell-based; details: time 24-72 hrs
CAKI-1 = assay: Antiproliferative activity against human CAKI-1 cells assessed as inhibition of cell growth measured after 24 to 72 hrs by MTT assay; format: functional, cell-based; details: time 24-72 hrs
SK-RC-20 [7] = assay: Downregulation of MT1-MMP mRNA expression in human SK-RC-20 cells at 50 to 100 nM by RT-PCR analysis; format: functional, cell-based; details: dose 50-100 nM
SK-RC-20 [8] = assay: Downregulation of MMP2 mRNA expression in human SK-RC-20 cells at 50 to 100 nM by RT-PCR analysis; format: functional, cell-based; details: dose 50-100 nM
SK-RC-20 [9] = assay: Antitumor activity in human SK-RC-20 cells xenografted in male BALB/c nude mouse model assessed as reduction in tumor volume at 5 to 15 mg/kg measured every three days for 15 days; format: functional, organism-based; details: dose 5-15 mg/kg, time 15.0 day
[10] = Toxicity in male BALB/c nude mouse assessed as change in body weight at 5 to 15 mg/kg measured every three days for 15 days; format: organism-based; details: in vivo, 360 h, dose 5-15 mg/kg, time 15 day
SK-RC-20 [11] = assay: Antitumor activity in human SK-RC-20 cells xenografted in male BALB/c nude mouse model assessed as inhibition of tumor growth at 15 mg/kg measured every three days for 15 days; format: functional, organism-based; details: time 15.0 day

## CC[C@H](C)[C@H](NC(=O)[C@H](CC(=O)O)NC(=O)[C@@H](NC(=O)[C@@H](NC(=O)[C@H](Cc1c[nH]c2ccccc12)NC(=O)[C@H](Cc1cnc[nH]1)NC(=O)[C@H](CO)NC(=O)[C@@H](CCCNC(=N)N)NC(=O)[C@H](CCCNC(=N)N)NC(=O)[C@@H](CCCNC(=N)N)NC(=O)[C@H](CCCNC(=N)N)NC(=O)[C@@H](CCCNC(=N)N)NC(=O)CNC(=O)[C@@H](CCCNC(=N)N)NC(=O)[C@H](CCCNC(=N)N)NC(=O)[C@@H](CCCNC(=N)N)NC(C)=O)C(C)(C)C)C1CCCCC1)C(=O)O
[1]
  pKd: 9.52
[2]
  Stability: Unstable
[3]
  pIC50: 4.66
[4]
  pIC50: 4.84
[5]
  pIC50: 5.01

## CC[C@H](C)[C@H](NC(=O)[C@H](CC(=O)O)NC(=O)[C@@H](NC(=O)[C@@H](NC(=O)[C@H](Cc1c[nH]c2ccccc12)NC(=O)[C@H](NC(=O)[C@@H](NC(C)=O)[C@@H](C)O)C(C)C)C(C)C)c1ccccc1)C(N)=O
[1]
  pKd: 7.82

## CC[C@H](C)[C@H](NC(=O)[C@H](CC(=O)O)NC(=O)[C@@H](NC(=O)[C@@H](NC(=O)[C@H](Cc1c[nH]c2ccccc12)NC(=O)[C@@H](CCCCN)NC(=O)[C@H](C)NC(C)=O)C(C)C)c1ccccc1)C(N)=O
[1]
  pKd: 8.04

## CC[C@H](C)[C@H](NC(=O)[C@@H](NC(=O)[C@@H](NC(=O)[C@@H](NC(=O)[C@H](Cc1c[nH]c2ccccc12)NC(=O)[C@@H](CCCCN)NC(=O)[C@@H](NC(C)=O)[C@@H](C)O)C(C)C)c1ccccc1)C(C)C)C(N)=O
[1]
  pKd: 7.55

## CC[C@H](C)[C@H](NC(=O)[C@H](CC(=O)O)NC(=O)[C@H](NC(=O)[C@@H](NC(=O)[C@H](Cc1c[nH]c2ccccc12)NC(=O)[C@@H](CCCCN)NC(=O)[C@@H](NC(C)=O)[C@@H](C)O)C(C)C)C(C)C)C(N)=O
[1]
  pKd: 7.70

## CC[C@H](C)[C@H](NC(=O)[C@H](CC(=O)O)NC(=O)[C@@H](NC(=O)[C@@H](NC(=O)[C@H](Cc1cnc[nH]1)NC(=O)[C@@H](CCCCN)NC(=O)[C@@H](NC(C)=O)[C@@H](C)O)C(C)C)c1ccccc1)C(N)=O
[1]
  pKd: 7.47

## CC[C@H](C)[C@H](NC(=O)[C@H](CC(=O)O)NC(=O)[C@@H](NC(=O)[C@@H](NC(=O)[C@H](Cc1c[nH]c2ccccc12)NC(=O)[C@H](CCCCN)NC(=O)[C@@H](NC(C)=O)[C@@H](C)O)C(C)C)c1ccccc1)C(N)=O (Ac-TKWV[Phg]DI-NH2)
[1]
  pKd: 8.21
SK-RC-20 [6]
  Activity: Active
[2]; mouse serum, read-out: Stability
  remaining at 4 h, 5 µM: ~80%
[3]
  pIC50: 5.91
[4]
  pIC50: 6.04
[5]
  pIC50: 6.25
A498
  Activity: Active
UO-31
  Activity: Active
KMRC-1
  Activity: Active
CAKI-1
  Activity: Active
SK-RC-20 [7]
  Activity: Active
SK-RC-20 [8]
  Activity: Active
SK-RC-20 [9]
  Activity: Active
[10]
  Activity: Toxic
SK-RC-20 [11]
  Activity: Active

## CC[C@H](C)[C@H](NC(=O)[C@H](CC(=O)O)NC(=O)[C@@H](NC(=O)[C@@H](NC(=O)[C@H](Cc1c[nH]c2ccccc12)NC(=O)[C@H](Cc1cnc[nH]1)NC(=O)[C@@H](N)CO)[C@@H](C)O)[C@@H](C)CC)C(=O)O (H-SHWTIDI-OH)
[2]
  Stability: Unstable
